The values below come from patent US9751842B2, “Phthalazine derivatives” (Merck Patent GmbH, priority 2013, dated 2017).

What all share (assay type): biochemical
One experiment addresses T1, His-tagged Parp-1 (Homo sapiens, UniProt P09874).
T1 construct: purchased Enzo Life Sciences GmbH, Lörrach, Germany
Nature of the experiment: PARP-1 autoparsylation HTRF assay. The settings on record: 150 min at 23° C. The text has this: Description of the PARP1 Assay
Biochemical Activity Testing of PARP-1: Autoparsylation Assay
The autoparsylation assay is run in two steps: the enzymatic reaction in which His-tagged Parp-1 transfers biotinylated ADP-ribose/ADP-ribose to itself from biotinylated NAD/NAD as co-substrate and the detection reaction where a time resolved FRET between cryptate labelled anti-His antibody bound to the His tag of the enzyme and Xlent® labelled-streptavidin bound the biotin parsylation residue is analysed. The autoparsylation activity is detectable directly via the increase in HTRF signal.
The autoparsylation assay is performed as 384-well HTRF® (Cisbio, Codolet, France) assay format in Greiner low volume nb 384-well microtiter plates. 35 nM His-tagged Parp-1 (human, recombinant, Enzo Life Sciences GmbH, Lörrach, Germany) and a mixture of 125 nM bio-NAD (Biolog, Life science Inst., Bremen, Germany) and 800 nM NAD as co-substrate are incubated in a total volume of 6 μl (100 mM Tris/HCl, 4 mM Mg-chloride, 0.01% IGEPAL® CA630, 1 mM DTT, 0.5% DMSO, pH 8, 13 ng/μl activated DNA (BPS Bioscience, San Diego, US)) in the absence or presence of the test compound (10 dilution concentrations) for 150 min at 23° C. The reaction is stopped by the addition of 4 μl of the Stop/detection solution (70 nM SA-Xlent® (Cisbio, Codolet, France), 2.5 nM Anti-His-K® (Eu-labelled anti-His, Cisbio, Codolet, France) in 50 mM HEPES, 400 mM KF, 0.1% BSA, 20 mM EDTA, pH 7.0). After 1 h incubation at room temperature the HTRF is measured with an Envision multimode reader (Perkin Elmer LAS Germany GmbH) at excitation wavelength 340 nm (laser mode) and emission wavelengths 615 nm and 665 nm. The ratio of the emission signals is determined. The full value used is the inhibitor-free reaction. The pharmacological zero value used is Olaparib (LClabs, Woburn, US) in a final concentration of 1 μM. The inhibitory values (IC50) are determined using either the program Symyx Assay Explorer® or Condosseo® from GeneData.

For experiment [1], the target named is T2, GST-tagged Tankyrase-1 (1023-1327 aa) (Homo sapiens, UniProt O95271).
T2 construct: GST-tagged Tankyrase-1 (1023-1327 aa)
T2 sequence (O95271 1023-1327): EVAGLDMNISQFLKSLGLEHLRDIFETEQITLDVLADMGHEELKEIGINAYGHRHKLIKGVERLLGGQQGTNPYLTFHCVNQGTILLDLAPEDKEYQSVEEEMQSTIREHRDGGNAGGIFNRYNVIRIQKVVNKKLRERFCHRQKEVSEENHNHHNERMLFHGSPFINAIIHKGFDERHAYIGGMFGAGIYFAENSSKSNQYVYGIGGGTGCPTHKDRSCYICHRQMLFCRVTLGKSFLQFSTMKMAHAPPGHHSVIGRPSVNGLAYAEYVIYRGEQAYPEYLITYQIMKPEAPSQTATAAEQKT
Put plainly: Tankyrase 1 autoparsylation HTRF enzyme assay. The note with it: HTRF autoparsylation, 90 min at 30° C; read-out: IC50 TNKS1 enzyme assay. On the procedure:
(§1) Biochemical Activity Testing of Tankyrase 1 and 2: Autoparsylation Assay
(§2) The autoparsylation assay is run in two steps: the enzymatic reaction in which GST-tagged Tankyrase-1, resp Tankyrase-2 transferred biotinylated ADP-ribose to itself from biotinylated NAD as co-substrate and the detection reaction where a time resolved FRET between cryptate labelled anti-GST bound to the GST tag of the enzyme and Xlent® labelled-streptavidin bound the biotin-parsylation residue is analysed. The autoparsylation activity was detectable directly via the increase in HTRF signal.
(§3) The autoparsylation assay is performed as 384-well HTRF® (Cisbio, Codolet, France) assay format in Greiner low volume nb 384-well microtiter plates and is used for high throughput screen. 250 nM GST-tagged Tankyrase-1 (1023-1327 aa), respectively about 250 nM GST-tagged Tankyrase-2 (873-1166 aa) and 5 μM bio-NAD (Biolog, Life science Inst., Bremen, Germany) as co-substrate are incubated in a total volume of 5 μl (50 mM HEPES, 4 mM Mg-chloride, 0.05% Pluronic F-68, 1.4 mM DTT, 0.5% DMSO, pH 7.7) in the absence or presence of the test compound (10 dilution concentrations) for 90 min at 30° C. The reaction is stopped by the addition of 1 μl 50 mM EDTA solution. 2 μl of the detection solution (1.6 μM SA-Xlent® (Cisbio, Codolet, France), 7.4 nM Anti-GST-K® (Eu-labelled anti-GST, Cisbio, Codolet, France) in 50 mM HEPES, 800 mM KF, 0.1° A. BSA, 20 mM EDTA, 0.1% CHAPS, pH 7.0) are added. After 1 h incubation at room temperature the HTRF is measured with an Envision multimode reader (Perkin Elmer LAS Germany GmbH) at excitation wavelength 340 nm (laser mode) and emission wavelengths 615 nm and 665 nm. The ratio of the emission signals is determined. The full value used is the inhibitor-free reaction. The pharmacological zero value used is XAV-939 (Tocris) in a final concentration of 5 μM. The inhibitory values (IC50) are determined using either the program Symyx Assay Explorer® or Condosseo® from GeneData.

In experiment [2] the target is T3, GST-tagged Tankyrase-2 (873-1166 aa) (Homo sapiens, UniProt Q9H2K2).
T3 construct: GST-tagged Tankyrase-2 (873-1166 aa)
T3 sequence (Q9H2K2 873-1166): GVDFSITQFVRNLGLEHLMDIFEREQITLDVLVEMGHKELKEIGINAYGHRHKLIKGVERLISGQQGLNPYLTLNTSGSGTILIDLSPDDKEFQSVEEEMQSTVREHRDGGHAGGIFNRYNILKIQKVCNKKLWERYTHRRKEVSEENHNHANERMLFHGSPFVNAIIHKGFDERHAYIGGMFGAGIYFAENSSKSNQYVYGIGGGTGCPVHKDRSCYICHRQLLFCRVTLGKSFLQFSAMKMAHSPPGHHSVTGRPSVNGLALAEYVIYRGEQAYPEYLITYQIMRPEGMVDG
Put plainly: Tankyrase 2 autoparsylation HTRF enzyme assay. The settings on record: HTRF autoparsylation, 90 min at 30° C; read-out: IC50 TNKS2 enzyme assay. Here is the method:
as §1, §2, §3
On the technique in general: In TR-FRET formats the signal depends on donor and acceptor labels being close together.

T1 sequence (P09874 whole entry): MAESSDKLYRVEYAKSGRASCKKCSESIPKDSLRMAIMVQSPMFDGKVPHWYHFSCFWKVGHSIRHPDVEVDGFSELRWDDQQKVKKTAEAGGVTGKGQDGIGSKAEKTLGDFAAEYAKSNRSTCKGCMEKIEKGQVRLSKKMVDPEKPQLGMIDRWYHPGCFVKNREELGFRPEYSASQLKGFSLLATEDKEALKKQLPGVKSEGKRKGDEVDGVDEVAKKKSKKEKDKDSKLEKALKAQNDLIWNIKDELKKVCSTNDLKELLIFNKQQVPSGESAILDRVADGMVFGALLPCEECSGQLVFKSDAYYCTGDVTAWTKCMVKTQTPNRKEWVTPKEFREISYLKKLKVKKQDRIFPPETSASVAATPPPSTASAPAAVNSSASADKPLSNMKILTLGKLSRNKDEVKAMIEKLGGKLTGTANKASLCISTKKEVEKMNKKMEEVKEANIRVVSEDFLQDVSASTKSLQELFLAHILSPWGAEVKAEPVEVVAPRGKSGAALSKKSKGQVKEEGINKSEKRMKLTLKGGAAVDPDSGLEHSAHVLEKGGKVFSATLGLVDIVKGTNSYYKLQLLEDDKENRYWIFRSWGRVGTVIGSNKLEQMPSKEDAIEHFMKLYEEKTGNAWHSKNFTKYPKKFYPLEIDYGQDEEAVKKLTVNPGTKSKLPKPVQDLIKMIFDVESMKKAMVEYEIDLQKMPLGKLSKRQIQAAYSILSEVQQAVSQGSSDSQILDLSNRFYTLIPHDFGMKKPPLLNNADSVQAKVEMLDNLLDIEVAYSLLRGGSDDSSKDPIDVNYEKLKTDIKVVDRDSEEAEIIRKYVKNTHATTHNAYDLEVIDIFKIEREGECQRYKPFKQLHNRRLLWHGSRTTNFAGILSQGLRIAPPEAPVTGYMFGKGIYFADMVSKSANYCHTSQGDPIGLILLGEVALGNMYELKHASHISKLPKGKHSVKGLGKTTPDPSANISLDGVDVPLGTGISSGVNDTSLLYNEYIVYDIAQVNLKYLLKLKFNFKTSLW

The IC50 is the concentration that inhibits the measured activity by half. On to `O=C(Cc1ccccc1)Nc1nncc2ccccc12` [Compound A1, 2-phenyl-N-phthalazin-1-yl-acetamide], for which the IC50 on His-tagged Parp-1 is 3 to 50 µM; in experiment [1] it was under 0.3 µM; in experiment [2], 0.3 to 3 µM.

As for `COc1cccc(CC(=O)Nc2nncc3ccccc23)c1` [Compound A2, 2-(3-methoxyphenyl)-N-phthalazin-1-yl-acetamide], the IC50 on His-tagged Parp-1 was 3 to 50 µM; in experiment [1], 0.3 to 3 µM; in experiment [2], 0.3 to 3 µM.

As for `COc1ccc(CC(=O)Nc2nncc3ccccc23)cc1` [Compound A3, 2-(4-methoxyphenyl)-N-phthalazin-1-yl-acetamide], the 50% inhibitory concentration (IC50) on His-tagged Parp-1 is 3 to 50 µM; in experiment [1], under 0.3 µM; in experiment [2], 0.3 to 3 µM.

As to `CCOc1ccc(CC(=O)Nc2nncc3ccccc23)cc1` [Compound A4, 2-(4-ethoxyphenyl)-N-phthalazin-1-yl-acetamide], the concentration for half-maximal inhibition (IC50) on His-tagged Parp-1 is 3 to 50 µM; in experiment [1], under 0.3 µM; in experiment [2], 0.3 to 3 µM.

Regarding `O=C(CCC1CCCC1)Nc1nncc2ccccc12` [Compound A15, 3-cyclopentyl-N-phthalazin-1-yl-propionamide], the figures for the half-maximal inhibitory concentration (IC50) (against His-tagged Parp-1; in experiment [1]; in experiment [2]) were 3 to 50 µM, under 0.3 µM and under 0.3 µM, respectively.

Turning to `O=C(CCc1ccccc1Cl)Nc1nncc2ccccc12` [Compound A16, 3-(2-chloro-phenyl)-N-phthalazin-1-yl-propionamide], the IC50 on His-tagged Parp-1 is 3 to 50 µM; in experiment [1], under 0.3 µM; in experiment [2], under 0.3 µM.

For the compound `Cc1cccc2cnnc(NC(=O)Cc3ccccc3)c12` [Compound A18, N-(8-methyl-phthalazin-1-yl)-2-phenyl-acetamide], the IC50 (on His-tagged Parp-1; in experiment [1]; in experiment [2]) was 0.3 to 3 µM throughout.

For `COc1ccc(CC(=O)Nc2nncc3cccc(C)c23)cc1` [Compound A20, 2-(4-methoxy-phenyl)-N-(8-methyl-phthalazin-1-yl)-acetamide], the half-inhibitory concentration (IC50) (at His-tagged Parp-1; in experiment [1]; in experiment [2]) was 0.3 to 3 µM in each case.
